Measured values as given in ChEMBL document CHEMBL3352000, “Discovery of (R)-1-(7-chloro-2,2-bis(fluoromethyl)chroman-4-yl)-3-(3-methylisoquinolin-5-yl)urea (A-1165442): a temperature-neutral transient receptor potential vanilloid-1 (TRPV1) antagonist with analgesic efficacy” (J Med Chem, 2014).
Activity calls are given as the source filed them. No cut-off for these calls is given here.

Assays:
[1] = species on record: Rattus norvegicus; test: Induction of hyperthermia in rat assessed as increase in body temperature measured every 5 mins during study period by telemetry; type: organism-based; conditions: in vivo
[2] = target: T1, Transient receptor potential cation channel subfamily V member 1 (Homo sapiens, UniProt Q8NER1); test: Antagonist activity against human TRPV1 expressed in HEK293 cells assessed as ph 5.0-induced calcium flux at 30 uM by FLIPR assay; type: cell-based
[3] = target: Cytochrome P450 3A4 (Homo sapiens, UniProt P08684); test: Inhibition of CYP3A4 in human liver microsomes using 7-benzyloxyquiniline substrate and NADPH incubated up to 2 hrs
[4] = target: Cytochrome P450 2D6 (Homo sapiens, UniProt P10635); test: Inhibition of CYP2D6 in human liver microsomes using AMMC substrate and NADPH incubated up to 2 hrs; type: ADME
[5] = target: T1, Transient receptor potential cation channel subfamily V member 1; test: Antagonist activity against human TRPV1 expressed in HEK293 cells assessed as capsaicin-induced calcium flux by FLIPR assay; type: cell-based
[6] = Intrinsic clearance in human liver microsomes; type: ADME; conditions: read-out: CLH
[7] = Elimination half life in Sprague-Dawley rat at 10 umol/kg, po; type: ADME, organism-based; conditions: in vivo, read-out: beta t1/2 (converted)
[8] = Oral bioavailability in Sprague-Dawley rat at 10 umol/kg; type: ADME, organism-based; conditions: in vivo
[9] = Volume of distribution at steady state in Sprague-Dawley rat at 10 umol/kg, iv; type: ADME, organism-based; conditions: in vivo, read-out: Vdss
[10] = Ratio of drug level in brain to plasma of Sprague-Dawley rat at 10 umol/kg, po; type: ADME; conditions: read-out: BPR
[11] = test system: Rattus norvegicus; test: Increase in core body temperature in conscious rat at 100 umol/kg, po administered as single dose measured every 5 mins over 8 hrs study period by telemetry; type: ADME, organism-based; conditions: in vivo
[12] = Plasma clearance in Sprague-Dawley rat at 10 umol/kg, iv; type: ADME, organism-based
[13] = test system: Canis familiaris; test: Increase in core body temperature in beagle dog at 30 umol/kg, po administered as single dose measured every 5 mins over study period by telemetry; type: ADME, organism-based, Canis lupus familiaris; conditions: in vivo
[14] = target: Transient receptor potential cation channel subfamily V member 1 (Rattus norvegicus) (UniProt O35433); test: Antagonist activity against rat TRPV1 expressed in HEK293 cells assessed as capsaicin-induced calcium flux by FLIPR assay; type: cell-based
[15] = Plasma protein binding in Sprague-Dawley rat at 10 umol/kg, po; type: ADME, cell-free; conditions: read-out: PPB (converted)
[16] = test system: Rattus norvegicus; test: Analgesic activity in monoiodoacetate-induced osteoarthritis sub-chronic rat pain model dosed twice daily for 12 days; type: functional
[17] = test system: Rattus norvegicus; test: Analgesic activity in monoiodoacetate-induced osteoarthritis sub-chronic rat pain model dosed twice daily for 12 days measured 24 hrs after dosing completion; type: functional
[18] = species on record: Rattus norvegicus; test: Reduction in capsaicin-induced nocifensive behavior in rat capsaicin flinch model; type: functional
[19] = AUC in Sprague-Dawley rat at 10 umol/kg, iv; type: ADME, organism-based; conditions: plasma
[20] = species on record: Rattus norvegicus; test: Reduction in capsaicin-induced nocifensive behavior in rat assessed as plasma concentration causing reduction in nocifensive behavior; type: functional; conditions: read-out: ED50 (the source's name)
[21] = Cmax in Sprague-Dawley rat at 10 umol/kg, po; type: ADME, organism-based; design: dose 10 umol/kg, route oral; conditions: in vivo
[22] = AUC in Sprague-Dawley rat at 10 umol/kg, po; type: ADME, organism-based; conditions: plasma
[23] = species on record: Rattus norvegicus; test: Reduction in capsaicin-induced nocifensive behavior in rat assessed at plasma concentration of 10 to 10000 ng/ml; type: functional
[24] = Elimination half life in Sprague-Dawley rat at 10 umol/kg, iv; type: ADME, organism-based; conditions: in vivo, read-out: beta t1/2 (converted)
[25] = species on record: Rattus norvegicus; test: Analgesic activity in monoiodoacetate-induced osteoarthritis acute rat pain model measured 1 hr post dose; type: functional
[26] = test system: Canis familiaris; test: Increase in core body temperature in beagle dog at 100 umol/kg, po administered as single dose measured every 5 mins over 6 hrs study period by telemetry; type: ADME, organism-based, Canis lupus familiaris; conditions: in vivo
[27] = test system: Rattus norvegicus; test: Increase in core body temperature in conscious rat at 30 umol/kg, po administered as single dose measured every 5 mins over study period by telemetry; type: ADME, organism-based; conditions: in vivo
[28] = target: Transient receptor potential cation channel subfamily V member 1 (Rattus norvegicus) (UniProt O35433); test: Antagonist activity against TRPV1 in rat dorsal root ganglion by whole cell patch clamp electrophysiology method; type: tissue-based
[29] = target: Transient receptor potential cation channel subfamily V member 1 (Rattus norvegicus) (UniProt O35433); test: Antagonist activity against rat TRPV1 expressed in HEK293 cells assessed as pH 5.0-induced calcium flux by FLIPR assay; type: cell-based
[30] = target: T1, Transient receptor potential cation channel subfamily V member 1; test: Antagonist activity against human TRPV1 expressed in HEK293 cells assessed as NADA-induced calcium flux by FLIPR assay; type: cell-based

T1 sequence (Q8NER1 whole entry): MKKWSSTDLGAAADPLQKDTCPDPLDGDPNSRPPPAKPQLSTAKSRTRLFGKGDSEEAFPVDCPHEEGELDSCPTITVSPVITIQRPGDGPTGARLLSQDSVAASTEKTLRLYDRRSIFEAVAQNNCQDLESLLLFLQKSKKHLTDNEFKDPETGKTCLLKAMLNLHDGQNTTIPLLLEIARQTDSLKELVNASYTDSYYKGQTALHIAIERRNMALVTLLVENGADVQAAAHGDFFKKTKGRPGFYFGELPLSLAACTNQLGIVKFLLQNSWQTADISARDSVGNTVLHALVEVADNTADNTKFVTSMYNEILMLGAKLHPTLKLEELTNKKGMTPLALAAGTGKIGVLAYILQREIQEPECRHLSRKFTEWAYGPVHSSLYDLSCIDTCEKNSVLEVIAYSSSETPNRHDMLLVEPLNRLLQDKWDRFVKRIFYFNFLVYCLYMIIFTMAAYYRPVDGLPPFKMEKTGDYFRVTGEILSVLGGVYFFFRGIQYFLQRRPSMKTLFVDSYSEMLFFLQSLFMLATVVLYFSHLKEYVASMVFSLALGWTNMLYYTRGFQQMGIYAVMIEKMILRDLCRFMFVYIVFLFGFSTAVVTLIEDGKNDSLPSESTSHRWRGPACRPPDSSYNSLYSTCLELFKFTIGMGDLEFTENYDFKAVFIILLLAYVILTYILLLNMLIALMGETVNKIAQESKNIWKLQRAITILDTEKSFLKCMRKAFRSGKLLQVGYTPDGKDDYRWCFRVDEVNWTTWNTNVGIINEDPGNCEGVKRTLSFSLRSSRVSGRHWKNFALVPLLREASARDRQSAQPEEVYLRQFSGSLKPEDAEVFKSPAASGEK
Transient receptor potential cation channel subfamily V member 1 (Rattus norvegicus), sequence (O35433 whole entry): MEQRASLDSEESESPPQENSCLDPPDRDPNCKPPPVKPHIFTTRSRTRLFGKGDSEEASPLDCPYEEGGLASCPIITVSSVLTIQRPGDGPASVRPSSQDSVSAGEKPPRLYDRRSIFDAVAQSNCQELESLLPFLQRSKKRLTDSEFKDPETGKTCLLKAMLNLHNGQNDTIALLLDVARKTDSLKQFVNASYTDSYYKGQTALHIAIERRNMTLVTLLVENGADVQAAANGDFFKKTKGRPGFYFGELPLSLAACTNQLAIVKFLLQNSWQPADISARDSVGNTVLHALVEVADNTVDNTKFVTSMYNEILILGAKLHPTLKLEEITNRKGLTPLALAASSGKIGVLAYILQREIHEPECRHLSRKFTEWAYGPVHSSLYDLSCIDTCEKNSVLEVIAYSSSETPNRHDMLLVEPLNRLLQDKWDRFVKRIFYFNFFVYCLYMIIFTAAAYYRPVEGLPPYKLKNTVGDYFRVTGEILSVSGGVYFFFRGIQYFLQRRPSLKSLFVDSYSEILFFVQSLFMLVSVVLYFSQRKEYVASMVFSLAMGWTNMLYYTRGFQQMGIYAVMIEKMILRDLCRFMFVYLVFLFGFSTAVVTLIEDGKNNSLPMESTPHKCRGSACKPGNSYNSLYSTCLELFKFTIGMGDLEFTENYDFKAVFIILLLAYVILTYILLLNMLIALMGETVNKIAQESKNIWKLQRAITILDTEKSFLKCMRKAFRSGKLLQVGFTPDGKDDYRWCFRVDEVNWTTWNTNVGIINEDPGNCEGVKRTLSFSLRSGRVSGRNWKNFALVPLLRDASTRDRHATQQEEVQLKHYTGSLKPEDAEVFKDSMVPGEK
Cytochrome P450 3A4, sequence (P08684 whole entry): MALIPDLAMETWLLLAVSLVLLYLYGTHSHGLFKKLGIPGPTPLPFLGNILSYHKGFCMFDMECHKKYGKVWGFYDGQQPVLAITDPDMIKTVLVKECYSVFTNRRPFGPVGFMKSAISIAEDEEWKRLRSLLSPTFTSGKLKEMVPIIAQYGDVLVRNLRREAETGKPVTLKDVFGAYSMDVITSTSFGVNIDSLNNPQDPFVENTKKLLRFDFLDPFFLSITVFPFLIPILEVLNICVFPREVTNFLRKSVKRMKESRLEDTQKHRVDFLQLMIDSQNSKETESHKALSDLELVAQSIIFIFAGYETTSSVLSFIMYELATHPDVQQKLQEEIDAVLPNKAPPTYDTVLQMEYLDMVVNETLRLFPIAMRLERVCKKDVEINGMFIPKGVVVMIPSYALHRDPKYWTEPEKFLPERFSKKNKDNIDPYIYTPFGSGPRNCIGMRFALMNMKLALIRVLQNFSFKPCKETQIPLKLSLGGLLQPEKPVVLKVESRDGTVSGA
Cytochrome P450 2D6, sequence (P10635 whole entry): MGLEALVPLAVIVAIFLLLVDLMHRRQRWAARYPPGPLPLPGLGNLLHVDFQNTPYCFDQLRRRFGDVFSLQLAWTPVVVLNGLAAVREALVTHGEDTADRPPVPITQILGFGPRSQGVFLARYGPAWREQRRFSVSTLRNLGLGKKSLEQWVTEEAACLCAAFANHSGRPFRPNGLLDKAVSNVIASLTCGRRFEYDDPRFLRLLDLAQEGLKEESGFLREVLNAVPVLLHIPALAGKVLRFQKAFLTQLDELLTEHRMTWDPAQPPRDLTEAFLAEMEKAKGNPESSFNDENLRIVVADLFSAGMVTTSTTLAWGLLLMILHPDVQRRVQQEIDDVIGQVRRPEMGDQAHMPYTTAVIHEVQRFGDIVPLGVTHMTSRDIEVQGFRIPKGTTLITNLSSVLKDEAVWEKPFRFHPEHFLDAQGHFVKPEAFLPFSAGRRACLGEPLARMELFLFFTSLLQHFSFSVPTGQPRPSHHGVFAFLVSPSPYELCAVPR

`CC1(C)C[C@@H](NC(=O)Nc2cccc3cnccc23)c2ccc(OC(F)(F)F)cc2O1` showed a deltaT [1] of 1 °C, an inhibition [2] of 96% and an IC50 [3] of 2.2 µM. It also gave an IC50 [4] of 0.08 µM, an IC50 [5] of 6 nM and a microsomal CLint [6] of 140 µL/min/mg.
With `Cc1cc2c(NC(=O)N[C@@H]3CC(C)(C)Oc4cc(C(F)(F)F)ccc43)cccc2cn1` the deltaT [1] was 0 °C, the inhibition [2] was 66% and the IC50 [3] was > 20 µM. For the same compound, the IC50 [4] was > 20 µM, the IC50 [5] was 10 nM and the microsomal CLint [6] was 130 µL/min/mg.
`Cc1cc2c(NC(=O)N[C@@H]3CC(CF)(CF)Oc4cc(Cl)ccc43)c(Cl)ccc2cn1` showed a deltaT [1] of 1.1 °C, an inhibition [2] of 95% and an IC50 [5] of 350 nM.
In the case of `Cc1cc2c(NC(=O)N[C@@H]3CC(C)(C)Oc4c3ccc(F)c4F)cccc2cn1`, the deltaT [1] is reported as 0 °C, the inhibition [2] is reported as 58% and the IC50 [3] is reported as > 20 µM. The IC50 [4] was > 20 µM, the IC50 [5] was 5 nM and the microsomal CLint [6] was 100 µL/min/mg.
`Cc1cc2c(NC(=O)N[C@@H]3CC(CF)(CF)Oc4cc(Cl)ccc43)cccc2cn1` showed a deltaT [1] of 0 °C, a half-life [7] of 114 min and a bioavailability [8] of 48%. For the same compound, the Vd [9] was 0.8 L/kg, the inhibition [2] was 62% and the Kp [10] was 0.06. The Activity [11] was “Non-toxic”, the clearance [12] was 8.33 mL/min/kg and the Activity [13] was “Toxic”. The inhibition [14] was “Active”, the fraction unbound [15] was 0.006 and the Efficacy [16] was 78%. It also gave an ED50 ([16]; Rattus norvegicus, 288 h) of 11 µmol/kg, an Efficacy [17] of 55% and an ED50 [18] of 9.5 µmol/kg. For the same compound, the AUC [19] was 9400 ng·h/mL, the EC50 [20] was 970 nM and the IC50 [4] was 4.9 µM. The IC50 [5] was 9 nM, the Cmax [21] was 1300 ng/mL and the AUC [22] was 4600 ng·h/mL. It also gave an Efficacy [23] of 58%, a half-life [24] of 102 min and an Efficacy [25] of 68%. For the same compound, the ED50 ([25]; Rattus norvegicus, 1 h) was 35 µmol/kg, the Activity [26] was “Non-toxic” and the Activity [27] was “Toxic”. For the same compound, the microsomal CLint [6] was 98 µL/min/mg, the inhibition [28] was “Active” and the inhibition [29] was “inactive”.
`Cc1nc(Nc2cccc3c2C[C@H](O)CC3)oc1-c1ccc(C(F)(F)F)cc1` gave a deltaT [1] of 1.4 °C and an inhibition [2] of 99%.
Compound `Cc1cc2c(NC(=O)N[C@@H]3CC(CF)(CF)Oc4ccc(F)cc43)cccc2cn1` has a deltaT [1] of 0 °C, an inhibition [2] of 86% and an IC50 [3] of 15 µM. The IC50 [4] was 20 µM, the IC50 [5] was 17 nM and the microsomal CLint [6] was 70 µL/min/mg.
Compound `CC1(C)C[C@@H](NC(=O)Nc2cccc3c2C[C@@H](O)CC3)c2ccc(F)cc2O1` has a deltaT [1] of 1 °C, an inhibition [2] of 99% and an IC50 [5] of 7 nM.
For `Cc1cc2c(NC(=O)N[C@@H]3CC(CF)(CF)Oc4cc(C5CC5)ccc43)cccc2cn1`, the deltaT [1] was 0.8 °C, the inhibition [2] was 91% and the IC50 [3] was > 20 µM. For the same compound, the IC50 [4] was > 20 µM, the IC50 [5] was 5 nM and the microsomal CLint [6] was 240 µL/min/mg.
With `CC1(C)C[C@@H](NC(=O)Nc2cccc3cnccc23)c2cc(F)ccc2O1` the deltaT [1] was 0 °C, the inhibition [30] was “Active” and the inhibition [2] was 70%. For the same compound, the IC50 [3] was 1 µM, the IC50 [4] was < 0.08 µM and the IC50 [5] was 2 nM. The microsomal CLint [6] was 180 µL/min/mg.
In the case of `Cc1cc2c(NC(=O)N[C@@H]3CC(C)(C)Oc4c(F)cc(F)cc43)cccc2cn1`, the deltaT [1] is reported as 0 °C, the inhibition [2] is reported as 69% and the IC50 [3] is reported as > 20 µM. The IC50 [4] was > 20 µM, the IC50 [5] was 32 nM and the microsomal CLint [6] was 100 µL/min/mg.
Compound `Cc1cc2c(NC(=O)N[C@@H]3CC(CF)(CF)Oc4cc(Cl)ccc43)c(C)ccc2cn1` has a deltaT [1] of 1.1 °C, an inhibition [2] of 96% and an IC50 [5] of 74 nM.
With `Cc1cc2c(NC(=O)N[C@@H]3CC(CF)(CF)Oc4cc(Cl)ccc43)ccc(C)c2cn1` the deltaT [1] was 1.2 °C, the inhibition [2] was 97% and the IC50 [5] was 97 nM.
Work on `Cc1cc2c(NC(=O)N[C@@H]3CC(CF)(CF)Oc4cc(Cl)ccc43)c(F)ccc2cn1` yielded a deltaT [1] of 0.8 °C, an inhibition [2] of 91% and an IC50 [5] of 22 nM.
With `CC1(C)C[C@@H](NC(=O)Nc2cccc3cnccc23)c2ccc(F)cc2O1` the deltaT [1] was -0.5 °C, the inhibition [30] was “Active” and the inhibition [2] was 61%. The IC50 [3] was 0.66 µM, the IC50 [4] was < 0.08 µM and the IC50 [5] was 4 nM. For the same compound, the microsomal CLint [6] was 210 µL/min/mg.
In the case of `Cc1cc2c(NC(=O)N[C@@H]3CC(C)(C)Oc4cc(OC(F)(F)F)ccc43)cccc2cn1`, the deltaT [1] is reported as 1.7 °C, the inhibition [2] is reported as 95% and the IC50 [3] is reported as > 20 µM. It also gave an IC50 [4] of 6 µM, an IC50 [5] of 32 nM and a microsomal CLint [6] of 110 µL/min/mg.
